Source: ChEMBL document CHEMBL1201862, “PubChem BioAssay data set” (2004)
Counter-ions that a name gives are not always drawn. Calls of active or inactive are those of the source.

Columns and labels:
Cytochrome P450 2C19 = Cytochrome P450 2C19 (Homo sapiens, UniProt P33261); assay: Cytochrome panel assay with activity outcomes. Panel member name: p450-cyp2c19 Compounds with AC50 equal or less than 10 uM are considered active; assay type: functional; details: read-out: AC50
Cytochrome P450 2D6 = Cytochrome P450 2D6 (Homo sapiens, UniProt P10635);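 further: CYP2D6 member of a cytochrome P450 panel assay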
Sequence of Cytochrome P450 2D6 (P10635 whole entry): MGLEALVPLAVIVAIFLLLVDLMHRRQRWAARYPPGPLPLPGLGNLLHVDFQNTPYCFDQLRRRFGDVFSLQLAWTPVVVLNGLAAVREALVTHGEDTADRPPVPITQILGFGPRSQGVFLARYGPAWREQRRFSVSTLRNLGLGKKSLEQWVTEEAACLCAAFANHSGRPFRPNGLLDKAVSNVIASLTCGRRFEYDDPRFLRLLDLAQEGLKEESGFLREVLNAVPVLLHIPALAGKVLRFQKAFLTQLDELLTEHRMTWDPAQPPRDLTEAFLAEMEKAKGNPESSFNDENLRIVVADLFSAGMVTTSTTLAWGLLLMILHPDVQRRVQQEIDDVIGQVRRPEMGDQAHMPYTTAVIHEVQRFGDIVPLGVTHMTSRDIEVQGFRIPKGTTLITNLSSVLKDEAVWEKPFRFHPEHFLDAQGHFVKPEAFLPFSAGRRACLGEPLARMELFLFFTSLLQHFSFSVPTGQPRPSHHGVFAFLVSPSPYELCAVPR

Cytochrome P450 3A4 = Cytochrome P450 3A4 (Homo sapiens, UniProt P08684);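 further: CYP3A4 tested as one member of a cytochrome P450 panel screen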
Sequence of Cytochrome P450 3A4 (P08684 whole entry): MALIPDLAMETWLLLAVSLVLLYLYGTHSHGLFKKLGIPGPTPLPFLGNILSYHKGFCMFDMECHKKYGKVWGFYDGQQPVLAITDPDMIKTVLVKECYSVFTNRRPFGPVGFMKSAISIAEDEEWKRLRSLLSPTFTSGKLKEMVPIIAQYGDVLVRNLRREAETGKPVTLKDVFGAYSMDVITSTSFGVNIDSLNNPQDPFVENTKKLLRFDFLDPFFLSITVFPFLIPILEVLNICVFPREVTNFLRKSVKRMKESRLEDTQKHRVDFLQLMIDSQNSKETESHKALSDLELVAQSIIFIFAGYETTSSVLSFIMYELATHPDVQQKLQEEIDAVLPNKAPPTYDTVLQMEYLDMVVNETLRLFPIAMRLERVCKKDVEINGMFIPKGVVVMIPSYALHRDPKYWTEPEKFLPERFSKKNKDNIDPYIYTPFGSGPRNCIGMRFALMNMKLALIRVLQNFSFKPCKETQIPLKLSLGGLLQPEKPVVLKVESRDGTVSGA

H9c2 = assay: cells; assay type: functional, cell-based; details: Rattus norvegicus, H9c2, Myocardium;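 further: confirmatory concentration-response retest of ultra-high-throughput screening hits for modulation of myocardial damage; cell death induced by hydrogen peroxide oxidative stress; compound pretreatment for 60 min then peroxide exposure for 2 h; potency is for protecting the cells against peroxide damage rather than for killing them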
INS1 = assay: beta cell apoptosis inhibitors, cytokine rescue, dose response, luminescence, retest (AID 449756); assay type: functional, cell-based; details: Rattus norvegicus;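 further: cell death triggered by IL-1 beta plus TNF-alpha plus IFN-gamma mixture; protective hits raise ATP signal compared with cytokine alone wells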
[1] = target: T1, Polyadenylate-binding protein 1 (Homo sapiens, UniProt P11940); assay: PABP1 MLLE–PAM2 binding inhibitor potency, dose response, biochemical, fluorescence polarization, FITC-PAM2 peptide (AID 602259); assay type: functional; details: read-out: IC50_Mean
T1 sequence (P11940 whole entry): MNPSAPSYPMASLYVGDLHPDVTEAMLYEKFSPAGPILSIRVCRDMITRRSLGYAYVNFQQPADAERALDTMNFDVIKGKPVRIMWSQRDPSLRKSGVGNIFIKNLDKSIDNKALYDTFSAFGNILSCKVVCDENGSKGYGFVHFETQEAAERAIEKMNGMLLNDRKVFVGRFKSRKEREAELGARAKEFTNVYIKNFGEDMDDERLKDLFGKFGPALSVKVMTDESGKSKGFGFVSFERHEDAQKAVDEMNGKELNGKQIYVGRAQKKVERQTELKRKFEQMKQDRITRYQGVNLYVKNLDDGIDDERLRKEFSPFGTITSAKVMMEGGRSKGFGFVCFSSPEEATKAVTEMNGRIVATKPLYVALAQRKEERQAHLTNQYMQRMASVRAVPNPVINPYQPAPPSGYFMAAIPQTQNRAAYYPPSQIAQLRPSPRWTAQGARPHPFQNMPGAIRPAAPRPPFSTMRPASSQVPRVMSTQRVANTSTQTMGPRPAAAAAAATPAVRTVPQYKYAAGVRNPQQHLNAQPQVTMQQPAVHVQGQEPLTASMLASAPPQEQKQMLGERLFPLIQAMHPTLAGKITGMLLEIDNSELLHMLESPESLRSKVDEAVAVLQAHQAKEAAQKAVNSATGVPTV

[2] = target: T1, Polyadenylate-binding protein 1; assay: PABP1 MLLE–PAM2 interaction inhibitors, dose response, miRNA deadenylation inhibitor project, biochemical, fluorescence polarization, Cy5-PAM2 peptide, secondary (AID 602260); assay type: functional; details: read-out: IC50_Mean
[3] = inhibitors of intracellular T. cruzi replication, confirmation, NIH3T3 host cells, beta-gal luminescence (AID 2044); assay type: functional, cell-based;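 further: intracellular parasites grown in NIH/3T3 mouse fibroblasts as host cells; luminescent beta-galactosidase reporter signal from transgenic T. cruzi replicating inside host cells; inhibitors lower the luminescence signal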
[4] = cytotoxicity toward NIH3T3 fibroblasts, dose response, counter-screen, cell-based, ATP luminescence, mouse fibroblasts (AID 2010); assay type: functional;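 further: cells exposed to compound for about 90 hours before reading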
[5] = target: Heat shock protein HSP 90-alpha (Homo sapiens, UniProt P07900); assay type: functional, organism-based
Cytochrome P450 2C9 = Cytochrome P450 2C9 (Homo sapiens, UniProt P11712)
Sequence of Cytochrome P450 2C9 (P11712 whole entry): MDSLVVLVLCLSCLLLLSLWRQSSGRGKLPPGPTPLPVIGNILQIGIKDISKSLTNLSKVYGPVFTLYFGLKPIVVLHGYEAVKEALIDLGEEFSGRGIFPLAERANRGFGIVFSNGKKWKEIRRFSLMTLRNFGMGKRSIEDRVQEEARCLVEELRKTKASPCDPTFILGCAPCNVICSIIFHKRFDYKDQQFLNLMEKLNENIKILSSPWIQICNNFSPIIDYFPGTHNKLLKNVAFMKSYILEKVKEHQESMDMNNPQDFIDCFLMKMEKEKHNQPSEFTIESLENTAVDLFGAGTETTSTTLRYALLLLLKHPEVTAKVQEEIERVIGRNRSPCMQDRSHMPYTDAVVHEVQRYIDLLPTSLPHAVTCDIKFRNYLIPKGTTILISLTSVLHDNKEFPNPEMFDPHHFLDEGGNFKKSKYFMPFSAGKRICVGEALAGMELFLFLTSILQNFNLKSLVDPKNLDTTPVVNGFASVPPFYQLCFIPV

[6] = tested on: Streptococcus sp. 'group A'; assay: growth inhibition of control SK(-) GAS strain, dose response, counter-screen for streptokinase expression inhibitor project, luminescence, kanamycin, BacTiterGlo, confirmation (AID 1900); assay type: functional, organism-based; details: read-out: EC50
Streptococcus = assay: Group A Streptococcus viability loss, dose response, counter-screen for streptokinase expression inhibitor project, luminescence, BacTiterGlo (AID 1915); assay type: functional, organism-based;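 further: potency for reduction of bacterial viability or growth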
Streptokinase A = target: T2, Streptokinase A (Streptococcus pyogenes serotype M1, UniProt P10520); assay: S. pyogenes streptokinase expression inhibitors, potency, dose response, plasminogen activation absorbance, OD405 (AID 1914); assay type: functional, Streptococcus pyogenes M1 GAS;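 further: secreted streptokinase activity via plasminogen activation per viability signal from cell pellet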
T2 sequence (P10520 whole entry): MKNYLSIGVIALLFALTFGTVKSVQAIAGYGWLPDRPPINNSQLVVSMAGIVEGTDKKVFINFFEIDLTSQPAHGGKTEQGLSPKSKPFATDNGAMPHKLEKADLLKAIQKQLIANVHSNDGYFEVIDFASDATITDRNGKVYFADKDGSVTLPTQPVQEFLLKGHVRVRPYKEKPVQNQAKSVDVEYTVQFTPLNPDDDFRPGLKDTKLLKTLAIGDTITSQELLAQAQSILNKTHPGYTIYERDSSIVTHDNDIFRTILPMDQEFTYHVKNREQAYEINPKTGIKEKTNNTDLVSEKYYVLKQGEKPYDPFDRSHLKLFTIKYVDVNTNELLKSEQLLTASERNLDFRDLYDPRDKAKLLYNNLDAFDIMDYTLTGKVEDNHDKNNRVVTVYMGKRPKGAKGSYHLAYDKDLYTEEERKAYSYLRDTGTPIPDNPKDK

[7] = HEp-2 cell cytotoxicity, dose response, cytotoxicity control for RSV inhibitor project, HTS (AID 2410); assay type: functional; details: human respiratory syncytial virus
Cytochrome P450 1A2 = target: T3, Cytochrome P450 1A2 (Homo sapiens, UniProt P05177);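 further: PubChem cytochrome P450 panel assay, CYP1A2 panel member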
T3 sequence (P05177 whole entry): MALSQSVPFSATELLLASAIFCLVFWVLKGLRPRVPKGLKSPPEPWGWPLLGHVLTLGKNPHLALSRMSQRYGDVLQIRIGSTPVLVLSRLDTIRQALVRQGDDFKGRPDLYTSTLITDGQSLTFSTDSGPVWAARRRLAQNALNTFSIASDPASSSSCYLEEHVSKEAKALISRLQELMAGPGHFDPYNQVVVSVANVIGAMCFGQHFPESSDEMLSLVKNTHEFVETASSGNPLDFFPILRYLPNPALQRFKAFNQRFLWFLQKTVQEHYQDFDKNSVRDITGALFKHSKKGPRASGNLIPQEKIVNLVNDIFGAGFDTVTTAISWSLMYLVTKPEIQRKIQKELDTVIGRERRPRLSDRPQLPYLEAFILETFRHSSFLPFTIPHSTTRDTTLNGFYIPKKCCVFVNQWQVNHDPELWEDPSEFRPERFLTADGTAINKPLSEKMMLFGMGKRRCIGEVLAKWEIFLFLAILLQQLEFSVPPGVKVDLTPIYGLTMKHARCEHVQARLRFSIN

[8] = Luminescence Cell-Based Dose Response HTS to Identify Activators of Luciferase Translation or Activity in H4 […] Cells. [Related pubchem assays: 1829 (Project Summary), 1814 (Primary HTS)]; assay type: functional
H4 = assay: Luminescence Cell-Based Dose Response HTS to Identify Activators of 5'UTR Stem-Loop Driven Prion Protein mRNA Translation in H4 Neuroglioblastoma Cells. [Related pubchem assays: 1829 (Project Summary), 1814 (Primary HTS)]; assay type: functional; details: Homo sapiens
[9] = Luminescence Cell-Based Dose Confirmation HTS to Identify Activators of 5'UTR Stem-Loop Driven Alpha-Synuclein mRNA Translation in H4 Neuroglioblastoma Cells. [Related pubchem assays: 1829 (Project Summary), 1814 (Primary HTS)]; assay type: functional
[10] = inhibitors of clade B AD8 Env fusion, dose response, cell-based, cherry-pick (AID 652062); assay type: functional;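 further: luciferase signal from cell-cell fusion driven by HIV-1 clade B AD8 Env; potency is for inhibitors of fusion seen as a drop in luminescence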
[11] = off-target signal loss in HeLa-CEM21 co-culture – HeLa F-luc CTL cells, cherry-picked, counter-screen for HIV-1 Env fusion inhibitor project, dose response (AID 652040); assay type: functional, cell-based;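 further: potency for signal decrease marking cytotoxic or nonspecific inhibition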
P388 = assay: cells; assay type: functional; details: Mus musculus
SN12K1 = assay: cells; assay type: functional; details: Homo sapiens
P388/ADR = assay: cells; assay type: functional; details: Mus musculus
[12] = ZM109 Env clade C HIV-1 fusion inhibitors, dose response, HeLa effector, CEM target cells, luciferase, cherry-pick (AID 652058); assay type: functional, cell-based
[13] = inhibitors of HIV Env-driven cell fusion, dose response, cherry-pick (AID 652057); assay type: functional, cell-based

Sequence of Cytochrome P450 2C19 (P33261 whole entry): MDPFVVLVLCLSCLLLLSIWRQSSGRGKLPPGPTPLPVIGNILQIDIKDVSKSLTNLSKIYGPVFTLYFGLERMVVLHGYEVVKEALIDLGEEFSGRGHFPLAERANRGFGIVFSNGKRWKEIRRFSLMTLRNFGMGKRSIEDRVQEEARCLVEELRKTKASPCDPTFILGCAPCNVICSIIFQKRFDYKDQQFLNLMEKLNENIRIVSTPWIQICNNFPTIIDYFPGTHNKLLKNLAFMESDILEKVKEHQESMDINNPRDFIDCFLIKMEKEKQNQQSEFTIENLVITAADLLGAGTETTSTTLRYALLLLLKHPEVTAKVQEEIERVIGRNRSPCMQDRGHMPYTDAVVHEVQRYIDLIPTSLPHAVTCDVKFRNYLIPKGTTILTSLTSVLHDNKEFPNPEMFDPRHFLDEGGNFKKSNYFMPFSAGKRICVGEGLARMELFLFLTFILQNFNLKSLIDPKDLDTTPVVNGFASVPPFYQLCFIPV

CCCN1C(=O)C(NC(C)=O)c2cc(OC)ccc21 (stereo unspecified)
AC50 (Cytochrome P450 2C19): 22.4 µM (inconclusive)
AC50 (Cytochrome P450 2D6): 0.00562 µM (inconclusive)
AC50 (Cytochrome P450 3A4): 22.4 µM (inconclusive)

CCCCCCSc1ccc([C@H]2N[C@@](Cc3ccccc3)(C(=O)OC)[C@H]3C(=O)N(C)C(=O)[C@@H]23)cc1
IC50 (H9c2): > 79 µM (inactive)
AC50 (INS1): 14.1 µM (active)

Cc1cccc(NC(=O)NC(=S)NC(=O)c2ccccc2)c1
IC50 [1]: > 66 µM (inactive)
IC50 [2]: > 66 µM (inactive)

CC1CCCN(Cc2nc3c(c(=O)n(C)c(=O)n3C)n2CCCc2ccccc2)C1 (stereo unspecified)
IC50 (H9c2): 12.4 µM (active)

O=C(Nc1cc(Cl)ccc1-n1cncn1)c1ccc([N+](=O)[O-])s1
EC50 [3]: 0.207 µM (active)
EC50 [4]: > 60 µM (not active)
AC50 [5]: 3.72 µM (active)

COc1ccc(N(C(=O)c2cccnc2)S(=O)(=O)c2cccs2)cc1
IC50 (H9c2): > 79 µM (inactive)

COc1ccc(NC(=O)CSc2nnc(CCC(=O)O)c(=O)n2N)cc1
IC50 [1]: > 66 µM (inactive)
IC50 [2]: > 66 µM (inactive)

O=C(NC(=S)NC1CCSC1=O)c1ccc([N+](=O)[O-])cc1 (stereo unspecified)
IC50 [1]: > 66 µM (inactive)
IC50 [2]: > 66 µM (inactive)

O=C1c2ccccc2NC(c2c[nH]nc2-c2ccccc2)N1O (stereo unspecified)
IC50 (H9c2): 20.8 µM (active)

COc1ccc(S(=O)(=O)N(C(=O)c2ccncc2)c2ccc(OC(=O)c3ccncc3)cc2)cc1
AC50 [5]: 1.65 µM (active)

Oc1nc(S)nc2c1CN(Cc1ccc(F)cc1)CC2
IC50 [1]: > 66 µM (inactive)
IC50 [2]: > 66 µM (inactive)

COc1ccc(-c2nn(-c3ccccc3)cc2C(=O)N2CCN(S(=O)(=O)c3cccc(F)c3)CC2)cc1
AC50 [5]: 2.04 µM (active)

COc1ccc(/C=C2\N=C(c3c(-c4ccccc4)noc3C)OC2=O)cc1OC
AC50 (Cytochrome P450 2C9): 1 µM (inconclusive)
AC50 (Cytochrome P450 2C19): 28.2 µM (inconclusive)
AC50 (Cytochrome P450 2D6): 20 µM (inconclusive)

Cc1ccc2nc(-c3ccc(NS(=O)(=O)c4ccc(F)cc4)cc3)sc2c1
EC50 [6]: 3.12 µM (active)
EC50 (Streptococcus): 5.33 µM (active)
EC50 (Streptokinase A): > 150 µM (not active)
AC50 [5]: 4.57 µM (active)

CSc1nnc2c3cc(F)ccc3n(C)c2n1
CC50 [7]: 30 µM (active)
AC50 [5]: 5.56 µM (active)

CCC(C)NC(=O)[C@H]1N2C(=O)c3c(ccc(OC)c3OC)C2SC1(C)C (stereo partly specified)
IC50 [1]: > 66 µM (inactive)
IC50 [2]: > 66 µM (inactive)

CCOC(=O)C1C(=O)NC(SCC(=O)OC)=C(C#N)C1c1ccccc1OCC (stereo unspecified)
IC50 (H9c2): 67.2 µM (inactive)

CCCc1cc2c(n1Cc1ccc(OC)cc1)C(C)C1CN(C(=O)c3ccccc3)C(C)(C(=O)OC)C21 (stereo unspecified)
AC50 (Cytochrome P450 2C19): 0.00631 µM (inconclusive)
AC50 (Cytochrome P450 2D6): 39.8 µM (inconclusive)
AC50 (Cytochrome P450 1A2): 15.8 µM (inconclusive)

CC(C)n1nnnc1SCC(=O)c1ccc2c(c1)OCCO2
EC50 [8]: 0.624 µM (active)
AC50 (Cytochrome P450 2C9): 17.8 µM (inconclusive)
AC50 (Cytochrome P450 2D6): 14.1 µM (inconclusive)
EC50 (H4): > 120 µM (not active)
EC50 [9]: 0.276 µM (active)

O=C(NCc1cccnc1)c1cnc2cc3c(cc2c1O)OCCO3
AC50 [10]: 1.22 µM (active)
AC50 [11]: < 0.26 µM (active)

Cc1nc(O)nc(O)c1/C=C/C(=O)O
GI50 (P388): 631 µM (inactive)
GI50 (SN12K1): > 1000 µM (inactive)
GI50 (P388/ADR): > 1000 µM (inactive)

Nc1nncs1
GI50 (P388): 711 µM (inactive)
GI50 (SN12K1): 2120 µM (inactive)
GI50 (P388/ADR): 665 µM (inactive)

COc1cccc(N2CC(C(=O)NCc3nnc(O)c4ccccc34)CC2=O)c1 (stereo unspecified)
IC50 (H9c2): > 79 µM (inactive)

CC(=O)c1cccc(S(=O)(=O)NC2CCSc3ccccc32)c1 (stereo unspecified)
IC50 [1]: > 66 µM (inactive)
IC50 [2]: > 66 µM (inactive)

CCN(CC(=O)Nc1ccc(OC)cc1)C(=O)CSCc1c(C)noc1C
IC50 [1]: > 66 µM (inactive)
IC50 [2]: > 66 µM (inactive)

CC(=O)c1ccc(-c2cnc3c(NC=O)cc(-c4ccc(C(=O)NC5CC5)cc4)cn23)cc1
IC50 (H9c2): > 79 µM (inactive)

CC(C)(C)N1C(=O)[C@H]2[C@@H](c3ccc(Br)cc3)N3C(=O)N(c4ccccc4)C(=O)[C@@]3(C)[C@H]2C1=O
AC50 [10]: 1.83 µM (active)
AC50 [11]: 1.18 µM (active)
AC50 [12]: 1.08 µM (active)
AC50 [13]: 1.13 µM (active)

Cc1cc(NC(=S)Nc2ccccc2)c(NC(=S)Nc2ccccc2)cc1C
GI50 (P388): 1.41 µM (inactive)
GI50 (SN12K1): 18.5 µM (inactive)
GI50 (P388/ADR): 3.3 µM (inactive)

CC1C(=O)C(C)C(c2ccco2)N(N=O)C1c1ccco1 (stereo unspecified)
GI50 (P388): > 100 µM (inactive)
GI50 (SN12K1): > 100 µM (inactive)
GI50 (P388/ADR): 63.4 µM (inactive)

CC1=C2C(O)C(C(C)C(=O)N(C)C)CCC2(C)C=CC1=O (stereo unspecified)
GI50 (P388): > 100 µM (inactive)
GI50 (SN12K1): > 100 µM (inactive)
GI50 (P388/ADR): > 100 µM (inactive)

Cc1cccc(C(=O)N/N=C2\CS(=O)(=O)N(C)c3ccsc32)c1
IC50 (H9c2): > 79 µM (inactive)

CCCCCC(O)C1C(=O)OC(C)C(O)/C=C/C=C/C=C/C=C/C=C(\C)C(O)C(O)C(O)CC(O)CC(O)CC(O)CC(O)CC1O (stereo unspecified)
GI50 (P388): 0.904 µM (active)
GI50 (SN12K1): 1.44 µM (inactive)
GI50 (P388/ADR): 1.95 µM (inactive)

COc1cc(/C=C/C(=O)Oc2ccccc2)ccc1C(=O)O/C=C/c1ccccc1
GI50 (P388): 3.78 µM (inactive)
GI50 (SN12K1): > 100 µM (inactive)
GI50 (P388/ADR): 0.83 µM (active)

O=C(CCN1CCOCC1)/C(=C/c1ccccc1)c1ccccc1
GI50 (P388): 2.29 µM (inactive)
GI50 (SN12K1): 3.03 µM (inactive)
GI50 (P388/ADR): 1.11 µM (active)

O=c1[nH]nc(Sc2ccccc2)c(=S)[nH]1
IC50 [1]: > 66 µM (inactive)
IC50 [2]: > 66 µM (inactive)

CC(C)NC(=O)OCc1c(COC(=O)NC(C)C)c(-c2ccc(Cl)c(Cl)c2)n2c1CCC2
GI50 (P388): > 100 µM (inactive)
GI50 (SN12K1): > 100 µM (inactive)
GI50 (P388/ADR): > 100 µM (inactive)

CC[C@]1(O)C[C@H]2CN(CCc3c([nH]c4ccccc34)[C@@](C(=O)OC)(c3cc4c(cc3OC)N(C=O)[C@H]3[C@@](O)(C(=O)OC)[C@H](OC(C)=O)[C@]5(CC)C=CCN6CC[C@]43[C@@H]65)C2)C1 [VINCRISTINE SULFATE]
GI50 (P388): 0.1 µM (active)
GI50 (SN12K1): 0.1 µM (active)
GI50 (P388/ADR): 0.171 µM (active)
